Data as given in patent US20240109915A1, “NOVEL ACC INHIBITORS” (Pfizer Inc., priority 2022, published 2024).

target: recombinant human ACC1 (rhACC1) (Homo sapiens (Human), UniProt Q13085); test: Transcreener ADP detection FP assay, direct inhibition of rhACC1; type: biochemical; details: Geomean IC50, n ≥ 2 unless * then n = 1; 50 μM ATP, 30 μM acetyl-CoA
Experimental: The direct inhibition of ACC1 for the compounds of the present invention was determined using preparations of recombinant human ACC1 (rhACC1) (SEQ ID NO. 1)
Two liters of SF9 cells, infected with recombinant baculovirus containing full length human ACC1 cDNA, were suspended in ice-cold lysis buffer (25 mM Tris, pH 7.5; 150 mM NaCl; 10% glycerol; 5 mM imidazole (EMD Bioscience; Gibbstown, NJ); 2 mM TCEP (BioVectra; Charlottetown, Canada); Benzonase nuclease (10000 U/100 g cell paste; Novagen; Madison, WI); EDTA-free protease inhibitor cocktail (1 tab/50 ml; Roche Diagnostics; Mannheim, Germany). Cells were lysed by 3 cycles of freeze-thaw and centrifuged at 40,000×g for 40 minutes (4° C.). Supernatant was directly loaded onto a HisTrap FF crude column (GE Healthcare; Piscataway, NJ) and eluted with an imidazole gradient up to 0.5 M over 20 column volumes (CV). ACC1-containing fractions were pooled and diluted 1:5 with 25 mM Tris, pH 7.5, 2 mM TCEP, 10% glycerol and direct loaded onto a CaptoQ (GE Healthcare) column and eluted with an NaCl gradient up to 1 M over 20 CV's. Phosphate groups were removed from purified ACC1 by incubation with lambda phosphatase (100 U/10 μM target protein; New England Biolabs; Beverly, MA) for 14 hours at 4° C.; okadaic acid was added (1 μM final concentration; Roche Diagnostics) to inhibit the phosphatase. Purified ACC1 was exchanged into 25 mM Tris, pH 7.5, 2 mM TCEP, 10% glycerol, 0.5 M NaCl by 6 hour dialysis at 4° C. Aliquots were prepared and frozen at −80° C.
Measurement of rhACC1 Inhibition rhACC1 was assayed in a Corning #3820 (Corning, Tewksbury, MA) 384-well plate using the Transcreener ADP detection FP assay kit (Bellbrook Labs, Madison, Wisconsin) using the manufacturer's recommended conditions for a 50 μM ATP reaction. The final conditions for the assay were 50 mM HEPES, pH 7.2, 10 mM MgCl2, 7.5 mM tripotassium citrate, 2 mM DTT, 0.1 mg/mL BSA, 30 μM acetyl-CoA, 50 μM ATP, and 10 mM KHCO3. Typically, a […] was run for 60 min at room temp, and 10 μl of Transcreener stop and detect buffer was added and the combination incubated at room temp for an overnight (18 hours). The data was acquired on an Envision Fluorescence reader (PerkinElmer) using a 620 excitation Cy5 FP general dual mirror, 620 excitation Cy5 FP filter, 688 emission (S) and a 688 (P) emission filter.

**Q.** How did the IC50 turn out when COc1cc(C(=O)N2CCC3(CC2)CC(=O)c2nc(C(C)(C)C)sc2C3)cc2c(C)nccc12 [Example 28, 2-(tert-butyl)-1′-(5-methoxy-1-methylisoquinoline-7-carbonyl)-5H-spiro[benzo[d]thiazole-6,4′-piperidin]-4(7H)-one] was run?
**A.** Its IC50 is 6.2 nM.

**Q.** Which IC50 does the source give for CC(C)(C)Nc1ccc2ccc(C(=O)N3CCC4(CC3)CC(=O)c3nc(C(C)(C)C)sc3C4)cc2n1 [Example 70] here?
**A.** Its IC50 is 4.6 nM.

**Q.** Which IC50 does the source give for CC(C)Nc1ccc2ccc(C(=O)N3CCC4(CC3)CC(=O)c3nc(C(C)(C)C)sc3C4)cc2n1 [Example 30, 2-(tert-butyl)-1′-(2-(isopropylamino)quinoline-7-carbonyl)-5H-spiro[benzo[d]thiazole-6,4′-piperidin]-4(7H)-one] here?
**A.** The IC50 was 4.6 nM.

**Q.** Which IC50 does the source give for COc1cc(C(=O)N2CCC3(CC2)CC(=O)c2nc(C(C)(C)C)sc2C3)cc(-c2ccc(C(N)=O)cc2)n1 [Example 23, 4-(4-(2-(tert-butyl)-4-oxo-4,7-dihydro-5H-spiro[benzo[d]thiazole-6,4′-piperidine]-1′-carbonyl)-6-methoxypyridin-2-yl)benzamide] here?
**A.** The IC50 was 7.2 nM.

**Q.** With Cc1cc(C(=O)N2CCC3(CC2)CC(=O)c2nc(C(C)(C)C)sc2C3)cc2c(C3CC3)nccc12 [Example 25, 2-(tert-butyl)-1′-(1-cyclopropyl-5-methylisoquinoline-7-carbonyl)-5H-spiro[benzo[d]thiazole-6,4′-piperidin]-4(7H)-one] as the compound, how does the IC50 read?
**A.** The IC50 was 6.6 nM.

**Q.** CC(C)(C)c1nc2c(s1)CC1(CCN(C(=O)c3ccc4ccccc4c3O)CC1)CC2=O [Example 63] was tested. Which IC50 did it give?
**A.** The IC50 was 19.7 nM.

**Q.** Which IC50 does the source give for Cc1n[nH]c2c(C)cc(C(=O)N3CCC4(CC3)CC(=O)c3nc(C(C)(C)C(C)C)sc3C4)cc12 [Example 3, 1′-(3,7-dimethyl-1H-indazole-5-carbonyl)-2-(2,3-dimethylbutan-2-yl)-5H-spiro[benzo[d]thiazole-6,4′-piperidin]-4(7H)-one] here?
**A.** The IC50 was 7.9 nM.

**Q.** With Cc1cc(C(=O)N2CCC3(CC2)CC(=O)c2nc(C(C)(C)C)sc2C3)cc2c1NCCC2 [Example 93] as the compound, how does the IC50 read?
**A.** The IC50 was 19.5 nM.

**Q.** With Cc1cc(C(=O)N2CCC3(CC2)CC(=O)c2nc(C(C)(C)C)sc2C3)cc2ccn(C)c12 [Example 76] as the compound, how does the IC50 read?
**A.** Its IC50 is 65.4 nM.

**Q.** CNc1ccc2c(OC)cc(C(=O)N3CCC4(CC3)CC(=O)c3nc(C(C)(C)C)sc3C4)cc2n1 [Example 40, 2-(tert-butyl)-1′-(5-methoxy-2-(methylamino)quinoline-7-carbonyl)-5H-spiro[benzo[d]thiazole-6,4′-piperidin]-4(7H)-one] was tested. Which IC50 did it give?
**A.** The IC50 was 1.5 nM.

**Q.** How did the IC50 turn out when COc1cc(C(=O)N2CCC3(CC2)CC(=O)c2nc(C(C)(C)C)sc2C3)cc2c(OC)cncc12 [Example 43, 2-(tert-butyl)-1′-(4,8-dimethoxyisoquinoline-6-carbonyl)-5H-spiro[benzo[d]thiazole-6,4′-piperidin]-4(7H)-one] was run?
**A.** Its IC50 is 5.2 nM.

**Q.** With CNc1nccc2c(C)cc(C(=O)N3CCC4(CC3)CC(=O)c3nc(C(C)(C)C)sc3C4)cc12 [Example 24, 2-(tert-butyl)-1′-(5-methyl-1-(methylamino)isoquinoline-7-carbonyl)-5H-spiro[benzo[d]thiazole-6,4′-piperidin]-4(7H)-one] as the compound, how does the IC50 read?
**A.** Its IC50 is 3.1 nM.

**Q.** With CNc1ccc2c(C)cc(C(=O)N3CCC4(CC3)CC(=O)c3nc(C5(C)CC5)sc3C4)cc2n1 [Example 9, 1′-(5-methyl-2-(methylamino)quinoline-7-carbonyl)-2-(1-methylcyclopropyl)-5H-spiro[benzo[d]thiazole-6,4′-piperidin]-4(7H)-one] as the compound, how does the IC50 read?
**A.** Its IC50 is 13.4 nM.

**Q.** For Cc1cc(C(=O)N2CCC3(CC2)CC(=O)c2nc(C(C)(C)C)sc2C3)c(O)c2ccccc12 [Example 52], which IC50 is on record?
**A.** The IC50 was 2.4 nM.

**Q.** CC(C)(C)c1nc2c(s1)CC1(CCN(C(=O)c3cc(Cl)c4cc[nH]c4c3)CC1)CC2=O [Example 78] was tested. Which IC50 did it give?
**A.** Its IC50 is 7.6 nM.

**Q.** With CC(C)(C)c1nc2c(s1)CC1(CCN(C(=O)c3ccc(Cl)c4[nH]ccc34)CC1)CC2=O [Example 88] as the compound, how does the IC50 read?
**A.** The IC50 was 15 nM.

**Q.** COc1ccnc2c(C)cc(C(=O)N3CCC4(CC3)CC(=O)c3nc(C(C)(C)C)sc3C4)cc12 [Example 41, 2-(tert-butyl)-1′-(4-methoxy-8-methylquinoline-6-carbonyl)-5H-spiro[benzo[d]thiazole-6,4′-piperidin]-4(7H)-one] was tested. Which IC50 did it give?
**A.** The IC50 was 15.3 nM.
